Measurements reported in patent publication US9034886B2, “4-aminoquinazoline derivatives and uses thereof” (Shanghai Institute of Pharmaceutical Industry, priority 2011, dated 2015).

How the values were obtained:
HDACs = assay: In vitro inhibition of HDACs (HDAC Inhibitor Drug Screening Kit, Biovision K340-100); assay type: biochemical
Protocol: The in vitro inhibitory activities of the compounds towards HDACs were tested according to the instructions in the HDAC Inhibitor Drug Screening Kit (Biovision/Catalog #K340-100).
(1) The compounds to be tested were each individually prepared as 2 mM, 200 μM and 40 μM solutions and their inhibitory activities at these concentrations were tested.

HDAC1 = HDAC1 (Homo sapiens (Human), UniProt Q13547); assay: In vitro inhibition of subtype HDAC1 (HDAC1 Inhibitor Drug Screening Kit, Biovision); assay type: biochemical; details: read-out: % Inhibition towards HDAC1
Protocol: The in vitro inhibitory activities of the compounds towards the subtype HDAC1 were tested according to the instructions in the HDAC1 Inhibitor Drug Screening Kit (Biovision).
(1) The compounds to be tested were each individually prepared as 10 μM and 1 μM solutions and their inhibitory activities at these concentrations were tested.
Each dilution sample was placed in two wells and the enzyme inhibition IC50 of the compound was tested.

[1] = system: Hut78 T lymphocytic leukemia cells; assay: In vitro anti-proliferative effect, CCK-8 method, Hut78; assay type: cell-based; details: Homo sapiens, HuT78, read-out: Hut-78 (inhibition %)
In short: (§1)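 Percent growth inhibition, measured with CCK-8, in Hut78 and K562 leukemia cells at two compound concentrations, 10 μM and 100 μM.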

[2] = system: PANC-1 human pancreatic cancer cells; assay: In vitro anti-proliferative effect, CCK-8 method, PANC-1; assay type: cell-based; details: Homo sapiens, PANC-1
In short: (§2)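 Read-out: CCK-8 viability, expressed as % inhibition; two test concentrations, 100 μM and 10 μM.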

[3] = system: Jurkat E6-1 human T-cell lymphoma; assay: In vitro anti-proliferative effect, CCK-8 method, Jurkat E6-1; assay type: cell-based; details: Homo sapiens, Jurkat E6.1
In short: as §2

[4] = system: K562 human chronic myelogenous leukemia cells; assay: In vitro anti-proliferative effect, CCK-8 method, K562; assay type: cell-based; details: Homo sapiens, K562
In short: as §1

[5] = system: A549 human lung cancer cells; assay: In vitro anti-proliferative effect, CCK-8 method, A549; assay type: cell-based; details: Homo sapiens, A549
In short: as §2

[6] = system: MDA-MB-435s human breast cancer cells; assay: In vitro anti-proliferative effect, CCK-8 method, MDA-MB-435s; assay type: cell-based; details: Homo sapiens, MDA-MB-435S
In short: as §2

[7] = system: Hep3B2.1-7 human liver cancer cells; assay: In vitro anti-proliferative effect, CCK-8 method, Hep3B; assay type: cell-based; details: Homo sapiens, Hep3B cell strain, CCK-8 method; for inhibition at 10 µM: compound at 10 μM; for inhibition at 100 µM: compound at 100 μM
In short: as §2

[8] = system: PC-3 human prostate cancer; assay: In vitro anti-proliferative effect, CCK-8 method, PC-3; assay type: cell-based; details: Homo sapiens, PC-3 cell strain, CCK-8 method; for inhibition at 10 µM: compound at 10 μM; for inhibition at 100 µM: compound at 100 μM
In short: as §2

[9] = system: Colo320 human colorectal cancer cell lines; assay: In vitro anti-proliferative effect, CCK-8 method, Colo320; assay type: cell-based; details: Homo sapiens, COLO 320, Colo320 cell strain, CCK-8 method; for inhibition at 10 µM: compound at 10 μM; for inhibition at 100 µM: compound at 100 μM
In short: as §2

[10] = Maximum tolerance dose through intragastrical administration; assay type: in vivo; details: mice, administrated intragastrically
Protocol: Forty ICR mice, half female and half male, weighing […] were divided into four groups, 10 mice in each group. After the mice were fasted for 6 h, the compound to be tested was administrated intragastrically to each group at a volume of 0.3 ml/10 g by using a sterile plastic syringe. General physical signs and the deaths of the animals were record at 1, 2 and 4 h after the administration. The animals were then observed continuously for 14 days and their weights, physical signs and deaths were observed and recorded every day. Dead animals were dissected to see if there was any visible pathological change in the animal's viscera and pathological examination was performed on suspicious tissues and organs. A part of the experimental results is as follows.

HDAC1, sequence (Q13547 whole entry): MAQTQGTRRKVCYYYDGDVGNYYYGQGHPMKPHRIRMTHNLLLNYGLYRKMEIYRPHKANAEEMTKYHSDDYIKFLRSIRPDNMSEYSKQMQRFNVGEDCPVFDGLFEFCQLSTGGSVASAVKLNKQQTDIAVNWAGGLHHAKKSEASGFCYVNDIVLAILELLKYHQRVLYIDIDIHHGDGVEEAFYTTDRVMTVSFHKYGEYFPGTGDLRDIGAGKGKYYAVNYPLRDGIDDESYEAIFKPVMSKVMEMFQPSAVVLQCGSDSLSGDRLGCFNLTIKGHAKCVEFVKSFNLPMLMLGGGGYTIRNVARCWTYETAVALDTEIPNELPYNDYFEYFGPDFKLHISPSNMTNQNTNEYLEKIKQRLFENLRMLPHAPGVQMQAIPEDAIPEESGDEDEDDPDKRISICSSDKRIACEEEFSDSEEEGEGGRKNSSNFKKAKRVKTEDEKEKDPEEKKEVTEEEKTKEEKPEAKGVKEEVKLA

SMILES | Inhibition percentage (%) towards HDACs (HDACs; 40 μM) [%] | Inhibition percentage (%) towards HDACs (HDACs; 200 μM) [%] | Inhibition percentage (%) towards HDACs (HDACs; 2 mM) [%] | inhibition at 1 µM (HDAC1) [%] | inhibition at 10 µM (HDAC1) [%] | inhibition at 10 µM [1] [%] | inhibition at 100 µM [1] [%] | inhibition at 10 µM [2] [%] | inhibition at 100 µM [2] [%] | inhibition at 10 µM [3] [%] | inhibition at 100 µM [3] [%] | inhibition at 10 µM [4] [%] | inhibition at 100 µM [4] [%] | inhibition at 10 µM [5] [%] | inhibition at 100 µM [5] [%] | inhibition at 10 µM [6] [%] | inhibition at 100 µM [6] [%] | inhibition at 10 µM [7] [%] | inhibition at 100 µM [7] [%] | inhibition at 10 µM [8] [%] | other results
COc1ccc2ncnc(Nc3ccc(C(=O)Nc4cc(F)ccc4N)cc3)c2c1 [Compound V-6, N-(2-amino-5-fluorophenyl)-4-(6-methoxyquinazoline-4-amino)benzamide] | 34.5 | 58.0 | 87.1 | 6.47 | 50.1 | 15.5 | 66.6 | 16.9 | 19.7 | 27.2 | 93.3 | 53.6 | 87.2 | -16.9 | 45.7 | 8 | 79.1 | -7 | 57.5 | 23.7 | IC50 (HDACs): 1.83 µM; inhibitory activity according to in vitro IC50 value against HDACs compared with MS-275 (HDACs): better inhibitory activities than MS-275; inhibitory activity on HDACs compared with MS-275 (HDACs; concentrations of 2 mM, 200 μM, and 40 μM): significantly stronger inhibitory activities than MS-275; inhibition at 100 µM [8]: 56%; inhibition at 10 µM [9]: -5.5%; inhibition at 100 µM [9]: 59.2%; maximum tolerance dose [10]: over 5000 mg/kg
Nc1ccccc1NC(=O)c1ccc(Nc2ncnc3ccc([N+](=O)[O-])cc23)cc1 [Compound V-11, N-(2-aminophenyl)-4-(6-nitroquinazoline-4-amino)benzamide] | 4.1 | 11.1 | 49.0 | 26.2 | 33.4 | 28.5 | 84.6 | 24 | 21.1 | 18.6 | 26.3 | 20.4 | 32.3 | 15.3 | 12.9 | 30.6 | 42.4 | 22.3 | 43 | 21.9 | IC50 (HDACs): 3.11 µM; inhibitory activity according to in vitro IC50 value against HDACs compared with MS-275 (HDACs): better inhibitory activities than MS-275; inhibition at 100 µM [8]: 18.8%; inhibition at 10 µM [9]: 2.6%; inhibition at 100 µM [9]: 4.1%; maximum tolerance dose [10]: over 2000 mg/kg
COc1cc2ncnc(Nc3ccc(C(=O)Nc4cc(-c5ccco5)ccc4N)cc3)c2cc1OC [Compound V-25, N-[2-amino-5-(2-furyl)phenyl]-4-(6,7-dimethoxyquinazoline-4-amino)benzamide] | 20.5 | 55.2 | 72.8 | 24.2 | 53.8 | 18.1 | 60 | 20.8 | 39.5 | 12.5 | 83.3 | 34.1 | 64.8 | 2.4 | 12 | 30.8 | 61.2 | 11.3 | 40.6 | -9.4 | inhibition at 100 µM [8]: 22.1%; inhibition at 10 µM [9]: 7.9%; inhibition at 100 µM [9]: 14.1%; maximum tolerance dose [10]: over 5000 mg/kg
